Source: patent publication US9822124B2, “Bicyclic heteroaromatic carboxamide compounds useful as Pim kinase inhibitors” (Incyte Corporation, priority 2014, dated 2017)

What was measured:
Type in all cases: biochemical
Pim-1 = Pim-1 (Homo sapiens (Human), UniProt P11309); assay: Pim-1 kinase assay (AlphaScreen, Biotin-labeled BAD peptide substrate); conditions: 1 mM ATP; read-out: Pim1 IC50
Experimental: (§1) Pim-1 and Pim-3 kinase assays—20 μL reactions were run in white 384 well polystyrene plates dotted with 0.8 μL compound/DMSO in the assay buffer (50 mM Tris, pH 7.5, 0.01% Tween-20, 5 mM MgCl2, 0.01% BSA, 5 mM DTT), containing 0.05 μM Biotin-labeled BAD peptide substrate (AnaSpec 62269), 1 mM ATP, and […] (Pim-1, Invitrogen PV3503) or […] (Pim-3, Millipore 14-738) enzyme for 1 h at 25° C. Reactions were stopped by addition of 10 μL STOP Buffer (150 mM Tris, pH=7.5, 150 mM NaCl, 75 mM EDTA, 0.01% Tween-20, 0.3% BSA) supplemented with Phospho-Bad (Ser112) Antibody (Cell Signaling 9291) diluted 666-fold, and Streptavidin donor beads (PerkinElmer 6760002) along with Protein-A acceptor beads (PerkinElmer 6760137) at 15 μg/mL each. Supplementation of the STOP buffer with beads and stopping the reactions were done under reduced light. Prior to the stopping reactions STOP buffer with beads was preincubated for 1 h in the dark at room temperature. After stopping the reactions, plates were incubated for 1 h in the dark at room temperature before reading on a PHERAstar FS plate reader (BMG Labtech) under reduced light.

Pim-2 = Pim-2 (Homo sapiens (Human), UniProt Q9P1W9); assay: Pim-2 kinase assay (TR-FRET, Fluorescein-labeled CREBtide peptide substrate); conditions: 1 mM ATP; read-out: Pim2 IC50
Chain of Pim-2 (Q9P1W9 whole entry): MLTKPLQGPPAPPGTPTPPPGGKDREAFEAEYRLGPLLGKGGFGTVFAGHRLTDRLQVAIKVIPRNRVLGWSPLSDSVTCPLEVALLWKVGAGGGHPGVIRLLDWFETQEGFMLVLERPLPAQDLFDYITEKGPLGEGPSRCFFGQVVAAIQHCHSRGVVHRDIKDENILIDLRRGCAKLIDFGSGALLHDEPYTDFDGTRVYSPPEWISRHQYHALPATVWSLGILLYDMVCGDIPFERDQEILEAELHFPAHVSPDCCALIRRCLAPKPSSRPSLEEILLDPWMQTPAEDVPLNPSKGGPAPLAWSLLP
Experimental: Pim-2 kinase assay—20 μL reactions were run in white 384 well polystyrene plates dotted with 0.8 μL compound/DMSO in the assay buffer (50 mM Tris, pH 7.5, 0.01% Tween-20, 5 mM MgCl2, 0.01% BSA, 5 mM DTT), containing 0.05 μM Fluorescein-labeled CREBtide peptide substrate (Invitrogen PV3508), 1 mM ATP, and 1 nM enzyme (Invitrogen PV3649) for 2 h at 25° C. Reactions were stopped by addition of 10 μL TR-FRET Dilution Buffer (Invitrogen PV3574) with 30 mM EDTA and 1.5 nM LanthaScreen Tb-CREB pSer133 antibody (Invitrogen PV3566). After 30 min. incubation at room temperature, plates were read on a PHERAstar FS plate reader (BMG Labtech).

Pim-3 = Pim-3 (Homo sapiens (Human), UniProt Q86V86); assay: Pim-3 kinase assay (AlphaScreen, Biotin-labeled BAD peptide substrate); conditions: 1 mM ATP; read-out: Pim3 IC50
Experimental: as §1

Chain of Pim-1 (P11309 whole entry): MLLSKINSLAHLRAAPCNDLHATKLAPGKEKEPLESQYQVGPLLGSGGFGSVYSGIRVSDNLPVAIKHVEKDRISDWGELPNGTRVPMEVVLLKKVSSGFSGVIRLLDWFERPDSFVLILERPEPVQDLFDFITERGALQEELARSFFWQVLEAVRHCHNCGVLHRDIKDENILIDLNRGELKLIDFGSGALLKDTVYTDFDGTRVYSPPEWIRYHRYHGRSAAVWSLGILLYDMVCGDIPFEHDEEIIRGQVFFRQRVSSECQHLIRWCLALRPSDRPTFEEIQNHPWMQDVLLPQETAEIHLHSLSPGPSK

Row | SMILES | IC50 (Pim-1) | IC50 (Pim-2) | IC50 (Pim-3)
1 | CC(C)c1cc2nc(C(=O)Nc3cnccc3N3C[C@@H](N)[C@H](O)[C@@H](C)C3)ccc2s1 [Example 39, N-(4-((3R,4R,5S)-3-Amino-4-hydroxy-5-methylpiperidin-1-yl)pyridin-3-yl)-2-isopropylthieno[3,2-b]pyridine-5-carboxamide] | ≤ 10 nM | ≤ 100 nM | ≤ 10 nM
2 | C[C@H]1CN(c2ccncc2NC(=O)c2ccc3sc(-c4c(F)cccc4F)cc3n2)C[C@@H](N)[C@@H]1O [Example 40, N-(4-((3R,4R,5S)-3-Amino-4-hydroxy-5-methylpiperidin-1-yl)pyridin-3-yl)-2-(2,6-difluorophenyl)thieno[3,2-b]pyridine-5-carboxamide] | ≤ 10 nM | 100 to 1000 nM | ≤ 10 nM
3 | C[C@H]1CN(c2ccncc2NC(=O)c2ccc3sc(-c4ccccc4F)cc3n2)C[C@@H](N)[C@@H]1O [Example 41, N-(4-((3R,4R,5S)-3-Amino-4-hydroxy-5-methylpiperidin-1-yl)pyridin-3-yl)-2-(2-fluorophenyl)thieno[3,2-b]pyridine-5-carboxamide] | ≤ 10 nM | 100 to 1000 nM | ≤ 10 nM
4 | C[C@H]1CN(c2ccncc2NC(=O)c2ccc3sc(Cc4ccccc4)cc3n2)C[C@@H](N)[C@@H]1O [Example 42, N-(4-((3R,4R,5S)-3-Amino-4-hydroxy-5-methylpiperidin-1-yl)pyridin-3-yl)-2-benzylthieno[3,2-b]pyridine-5-carboxamide] | ≤ 10 nM | 100 to 1000 nM | ≤ 10 nM
5 | COc1ccc(-c2cc3nc(C(=O)Nc4cnccc4N4C[C@@H](N)[C@H](O)[C@@H](C)C4)ccc3s2)cn1 [Example 43, N-(4-((3R,4R,5S)-3-Amino-4-hydroxy-5-methylpiperidin-1-yl)pyridin-3-yl)-2-(6-methoxypyridin-3-yl)thieno[3,2-b]pyridine-5-carboxamide] | ≤ 10 nM | 100 to 1000 nM | ≤ 10 nM
6 | C[C@H]1CN(c2ccncc2NC(=O)c2ccc3sc(-c4ccc(N5CCOCC5)nc4)cc3n2)C[C@@H](N)[C@@H]1O [Example 44, N-(4-((3R,4R,5S)-3-Amino-4-hydroxy-5-methylpiperidin-1-yl)pyridin-3-yl)-2-(6-morpholinopyridin-3-yl)thieno[3,2-b]pyridine-5-carb oxamide] | ≤ 10 nM | 100 to 1000 nM | ≤ 10 nM
7 | COc1cc(F)c(-c2cc3nc(C(=O)Nc4cnccc4N4C[C@@H](N)[C@H](O)[C@@H](C)C4)ccc3s2)c(F)c1 [Example 45, N-(4-((3R,4R,5S)-3-Amino-4-hydroxy-5-methylpiperidin-1-yl)pyridin-3-yl)-2-(2,6-difluoro-4-methoxyphenyl)thieno[3,2-b]pyridine-5-carboxamide] | ≤ 10 nM | 100 to 1000 nM | ≤ 10 nM
8 | C[C@H]1CN(c2ccncc2NC(=O)c2ccc3sc(-c4ccccc4)cc3n2)C[C@@H](N)[C@@H]1O [Example 46, N-(4-((3R,4R,5S)-3-Amino-4-hydroxy-5-methylpiperidin-1-yl)pyridin-3-yl)-2-phenylthieno[3,2-b]pyridine-5-carboxamide] | ≤ 10 nM | 100 to 1000 nM | ≤ 10 nM
9 | C[C@H]1CN(c2ccncc2NC(=O)c2ccc3sc(C4CC4)cc3n2)C[C@@H](N)[C@@H]1O [Example 47, N-(4-((3R,4R,5S)-3-Amino-4-hydroxy-5-methylpiperidin-1-yl)pyridin-3-yl)-2-cyclopropylthieno[3,2-b]pyridine-5-carboxamide] | ≤ 10 nM | ≤ 100 nM | ≤ 10 nM
10 | C[C@H]1CN(c2ccncc2NC(=O)c2ccc3sc(-c4cnn(C)c4)cc3n2)C[C@@H](N)[C@@H]1O [Example 48, N-(4-((3R,4R,5S)-3-Amino-4-hydroxy-5-methylpiperidin-1-yl)pyridin-3-yl)-2-(1-methyl-1H-pyrazol-4-yl)thieno[3,2-b]pyridine-5-carboxamide] | ≤ 10 nM | ≤ 100 nM | ≤ 10 nM
11 | Cc1cc2nc(C(=O)Nc3cnccc3N3C[C@@H](N)[C@H](O)[C@@H](C)C3)ccc2s1 [Example 49, N-(4-((3R,4R,5S)-3-Amino-4-hydroxy-5-methylpiperidin-1-yl)pyridin-3-yl)-2-methylthieno[3,2-b]pyridine-5-carboxamide] | ≤ 10 nM | 100 to 1000 nM | ≤ 10 nM
12 | CCCc1cc2nc(C(=O)Nc3cnccc3N3C[C@H](C)C[C@H](N)C3)ccc2s1 [Example 50, N-(4-((3S,5R)-3-Amino-5-methylpiperidin-1-yl)pyridin-3-yl)-2-propylthieno[3,2-b]pyridine-5-carboxamide] | ≤ 10 nM | ≤ 100 nM | ≤ 10 nM
13 | CC(C)c1cc2nc(C(=O)Nc3cnccc3N3C[C@H](C)C[C@H](N)C3)ccc2s1 [Example 51, N-(4-((3S,5R)-3-Amino-5-methylpiperidin-1-yl)pyridin-3-yl)-2-isopropylthieno[3,2-b]pyridine-5-carboxamide] | ≤ 10 nM | ≤ 100 nM | ≤ 10 nM
14 | C[C@@H]1C[C@H](N)CN(c2ccncc2NC(=O)c2ccc3sc(-c4c(F)cccc4F)cc3n2)C1 [Example 52, N-(4-((3S,5R)-3-Amino-5-methylpiperidin-1-yl)pyridin-3-yl)-2-(2,6-difluorophenyl)thieno[3,2-b]pyridine-5-carboxamide] | ≤ 10 nM | 100 to 1000 nM | ≤ 10 nM
15 | C[C@@H]1C[C@H](N)CN(c2ccncc2NC(=O)c2ccc3sc(-c4ccccc4F)cc3n2)C1 [Example 53, N-(4-((3S,5R)-3-Amino-5-methylpiperidin-1-yl)pyridin-3-yl)-2-(2-fluorophenyl)thieno[3,2-b]pyridine-5-carboxamide] | ≤ 10 nM | 100 to 1000 nM | ≤ 10 nM
16 | C[C@@H]1C[C@H](N)CN(c2ccncc2NC(=O)c2ccc3sc(Cc4ccccc4)cc3n2)C1 [Example 54, N-(4-((3S,5R)-3-Amino-5-methylpiperidin-1-yl)pyridin-3-yl)-2-benzylthieno[3,2-b]pyridine-5-carboxamide] | ≤ 10 nM | 100 to 1000 nM | ≤ 10 nM
17 | COc1ccc(-c2cc3nc(C(=O)Nc4cnccc4N4C[C@H](C)C[C@H](N)C4)ccc3s2)cn1 [Example 55, N-(4-((3S,5R)-3-Amino-5-methylpiperidin-1-yl)pyridin-3-yl)-2-(6-methoxypyridin-3-yl)thieno[3,2-b]pyridine-5-carboxamide] | ≤ 10 nM | 100 to 1000 nM | ≤ 10 nM
18 | C[C@@H]1C[C@H](N)CN(c2ccncc2NC(=O)c2ccc3sc(-c4ccc(N5CCOCC5)nc4)cc3n2)C1 [Example 56, N-(4-((3S,5R)-3-Amino-5-methylpiperidin-1-yl)pyridin-3-yl)-2-(6-morpholinopyridin-3-yl)thieno[3,2-b]pyridine-5-carboxamide] | ≤ 10 nM | 100 to 1000 nM | ≤ 10 nM
19 | COc1cc(F)c(-c2cc3nc(C(=O)Nc4cnccc4N4C[C@H](C)C[C@H](N)C4)ccc3s2)c(F)c1 [Example 57, N-(4-((3S,5R)-3-Amino-5-methylpiperidin-1-yl)pyridin-3-yl)-2-(2,6-difluoro-4-methoxyphenyl)thieno[3,2-b]pyridine-5-carboxamide] | ≤ 10 nM | 100 to 1000 nM | ≤ 10 nM
20 | C[C@@H]1C[C@H](N)CN(c2ccncc2NC(=O)c2ccc3sc(-c4ccccc4)cc3n2)C1 [Example 58, N-(4-((3S,5R)-3-Amino-5-methylpiperidin-1-yl)pyridin-3-yl)-2-phenylthieno[3,2-b]pyridine-5-carboxamide] | ≤ 10 nM | 100 to 1000 nM | ≤ 10 nM
21 | C[C@@H]1C[C@H](N)CN(c2ccncc2NC(=O)c2ccc3sc(C4CC4)cc3n2)C1 [Example 59, N-(4-((3S,5R)-3-Amino-5-methylpiperidin-1-yl)pyridin-3-yl)-2-cyclopropylthieno[3,2-b]pyridine-5-carboxamide] | ≤ 10 nM | ≤ 100 nM | ≤ 10 nM
22 | C[C@@H]1C[C@H](N)CN(c2ccncc2NC(=O)c2ccc3sc(-c4cnn(C)c4)cc3n2)C1 [Example 60, N-(4-((3S,5R)-3-Amino-5-methylpiperidin-1-yl)pyridin-3-yl)-2-(1-methyl-1H-pyrazol-4-yl)thieno[3,2-b]pyridine-5-carboxamide] | ≤ 10 nM | ≤ 100 nM | ≤ 10 nM
23 | Cc1cc2nc(C(=O)Nc3cnccc3N3C[C@H](C)C[C@H](N)C3)ccc2s1 [Example 61, N-(4-((3S,5R)-3-Amino-5-methylpiperidin-1-yl)pyridin-3-yl)-2-methylthieno[3,2-b]pyridine-5-carboxamide] | ≤ 10 nM | 100 to 1000 nM | ≤ 10 nM
